US20240181092A1, “DIAGNOSTIC METHODS OF PROSTATE CANCER” (NOVARTIS AG, priority 2021, published 2024)
“Also recorded” adds a separate entry of the source. Where two headings read alike, the source gives them in different places.

Tests used:
[1] = retrospective analysis of 1007 participants; cited from earlier work
prostate cancer tumors = details: cited from earlier work
PSMA [2] = target: T1, PSMA (Homo sapiens, UniProt Q04609); parameters: The [^18F]CTT1057 Phase-I study in 20 prostate cancer patients; from tissue; host or cells: tumour lesions in prostate cancer patients, imaged in vivo by PET; results quoted from Behr et al 2019 and Behr et al 2017; details: cited from earlier work
[3] = versus urea-based PET compounds; cited from earlier work
PSMA [4] = target: T1, PSMA; details: phosphoramidate scaffold, irreversible binding; cited from earlier work
[5] = Phase I, 20 prostate cancer patients (n=5 primary staging, n=15 mCRPC), approx. 370 MBq i.v.; cited from earlier work
[6] = human dosimetry, Phase I study; cited from earlier work
[7] = Human dosimetry in the Phase I study; assay type: in vivo; details: i.v. administration of 370 MBq
Excerpt: For PET diagnostic radiopharmaceuticals, only a single administration is required, usually intravenously. The investigational PET radiopharmaceutical [^18F]CTT1057 will be administered accordingly, as a single intravenous (i.v.) dose of approximately 370 MBq (266-407 MBq). […] Eur J Nucl Med Mol Imaging; 42:328-54). Human dosimetry was studied in the Phase I study. The effective dose was estimated at 0.023±0.007 mSv/MBq, which is in line as well with the effective dose of the commercial product [18F]FDG (0.019 mSv/MBq) according to the EANM guideline (Boellaard R, Delgado-Bolton R, Oyen WJG, et al (2015) FDG PET/CT: EANM procedure guidelines for tumour imaging: version 2.0. Eur J Nucl Med Mol Imaging; 42:328-54) and in other publications (0.020-0.025 mSv/MBq) (Kaushik A, Jaimini A, Tripathi M, et al (2015) Estimation of radiation dose to patients from (18) FDG whole body PET/CT investigations using dynamic PET scan protocol. Indian J Med Res; 142:721-31), as well as the effective dose of other PSMA PET agents (Behr SC, Aggarwal R, VanBrocklin HF, et al (2019) Phase I Study of CTT1057, an 18F-Labeled Imaging Agent with Phosphoramidate Core Targeting Prostate-Specific Membrane Antigen in Prostate Cancer. J Nucl Med; 60(7):910-6). The radiation dose estimated from an i.v. administration of 370 MBq of [18F]CTT1057 is 8.51 mSV. […]

[8] = cited from earlier work

T1 sequence (Q04609 whole entry): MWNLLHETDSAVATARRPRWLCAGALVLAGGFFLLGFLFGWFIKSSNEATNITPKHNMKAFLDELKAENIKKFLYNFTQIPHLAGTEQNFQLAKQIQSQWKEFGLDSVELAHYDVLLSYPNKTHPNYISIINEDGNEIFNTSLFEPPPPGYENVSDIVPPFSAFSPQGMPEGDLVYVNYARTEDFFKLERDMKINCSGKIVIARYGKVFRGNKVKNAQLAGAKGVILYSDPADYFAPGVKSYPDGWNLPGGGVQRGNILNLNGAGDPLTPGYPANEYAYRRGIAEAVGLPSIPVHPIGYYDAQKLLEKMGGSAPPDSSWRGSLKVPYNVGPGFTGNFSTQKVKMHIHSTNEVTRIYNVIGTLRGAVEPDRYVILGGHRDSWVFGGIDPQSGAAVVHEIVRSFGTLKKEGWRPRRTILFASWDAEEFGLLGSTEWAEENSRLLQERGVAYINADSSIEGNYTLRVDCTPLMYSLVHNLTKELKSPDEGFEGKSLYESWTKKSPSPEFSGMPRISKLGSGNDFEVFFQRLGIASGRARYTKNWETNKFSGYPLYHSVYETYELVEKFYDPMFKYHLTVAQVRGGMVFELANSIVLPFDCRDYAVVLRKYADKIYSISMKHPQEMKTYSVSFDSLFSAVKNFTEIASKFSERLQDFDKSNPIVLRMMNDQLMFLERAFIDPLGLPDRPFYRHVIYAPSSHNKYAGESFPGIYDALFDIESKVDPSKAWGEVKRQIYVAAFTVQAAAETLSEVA

SMILES: O=C([O-])CN(CCN(CC(=O)[O-])Cc1cc(CCC(=O)NCCCCCC(=O)NCCCC[C@H](NC(=O)N[C@@H](CCC(=O)O)C(=O)O)C(=O)O)ccc1[O-])Cc1cc(CCC(=O)O)ccc1[O-].[68Ga+3].[OH3+] [[^68Ga]Ga-PSMA-11]
- tolerability, adverse events following infusion [1]: well tolerated with no adverse events following infusion
- detection rates versus [18F]Fluciclovine (prostate cancer tumors; after radical prostatectomy, PSA <2.0 ng/ml, per-patient and per-region basis (Calais et al 2018)): superior
- overall detection rate for prostate cancer recurrence versus [18F]Fluciclovine (prostate cancer tumors; larger prospective head-to-head study (Pernthaler et al 2019)): no statistical differences

SMILES: O=C(O)CC[C@H](NP(=O)(O)OCCC[C@H](NC(=O)CC[C@H](NC(=O)CCCCCNC(=O)c1ccc([18F])cc1)C(=O)O)C(=O)O)C(=O)O [[^18F]CTT1057]
- sensitivity of detection of metastatic lesions versus conventional imaging (PSMA [2]; Phase I study): higher sensitivity
- image quality versus [68Ga]Ga-PSMA-11 PET (PSMA [2]; another smaller study (Behr et al 2017)): qualitatively similar
- image quality on a Visual Analog Scale (VAS) of 1 to 100 (PSMA [2]; approx. 370 MBq i.v., 1=nondiagnostic, 100=perfect study, rated by 2 Nuclear Medicine physicians): 76±5.4
- exposure to kidneys and salivary glands [3]: lower exposure to kidneys and salivary glands
- binding affinity to PSMA (PSMA [4]): irreversibly binds to PSMA with high nanomolar affinity
- safety and tolerability [5]: acceptable safety profile without any radiotracer-related adverse reactions; also recorded: safe and well tolerated; also recorded: acceptable safety profile, without any radiotracer-related adverse reactions; also recorded: study has shown an acceptable safety profile without any radiotracer-related
- effective dose [6]: 0.023±0.007 mSv/MBq
- radiation dose estimated from an i.v. administration [7]: 8.51 mSV

SMILES: OC[C@H]1OC(O)[C@H]([18F])[C@@H](O)[C@@H]1O (stereo partly shown) [[18F]FDG, [18F]Fluorodeoxyglucose]
- effective dose ([8]; according to the EANM guideline): 0.019 mSv/MBq
- effective dose ([8]; other publications (Kaushik et al 2015)): 0.020-0.025 mSv/MBq
